The results in this text go back to ChEMBL document CHEMBL4229375, “Towards new antibiotics targeting bacterial transglycosylase: Synthesis of a Lipid II analog as stable transition-state mimic inhibitor” (Bioorg Med Chem Lett, 2018).

One may read the inhibition as the change of the read-out against control, counted positive when it falls.

This test has as its target Bacterial penicillin-binding protein (Bacteria) (UniProt P24228+P0AD68+P02918+P02919+P0AEB2+P0AD65+P08506). Description: Inhibition of Acinetobacter baumannii PBP transglycosylase activity at 50 uM using NBD-labeled lipid 2 as substrate after 30 mins by N-acetylmuramidase enzyme coupled HPLC analysis relative to control. The format is protein assay.

`CC(=O)N[C@H]1[C@H](O[C@H]2[C@H](O)[C@H](O)[C@@H](CP(=O)(O)OP(=O)(O)OC/C=C(\C)CC/C=C(/C)CC/C=C(\C)CCC=C(C)C)N[C@@H]2CO)O[C@H](CO)[C@@H](O)[C@@H]1O`: the inhibition turned out to be 70%.
